Assay results as given in patent US10738093B2, “Discovery of cationic nonribosomal peptides as Gram-negative antibiotics through global genome mining” (The Hong Kong University of Science and Technology, priority 2018, dated 2020).
Converted amounts (≈) assume the structure as drawn. Positions of bridges follow the written chain, without caps; N, C: chain ends. Non-standard residues stand in square brackets, D forms with d. Residues, ends and D or L forms follow the SMILES beside them. ξ: configuration not given here. *: point of attachment. Hexanoyl(4ξ-Me) = CCC(C)CCC(=O)*; dOrn = NCCC[C@@H](N)C(=O)O; Orn = NCCC[C@H](N)C(=O)O

Assays:
[1] = system: Colistin-resistant E. coli (E. coli ATCC 25922 carrying mcr-1); format: cell-based, Escherichia coli
Procedure: (§1) Minimum inhibitory concentration (MIC) was determined by broth microdilution according to CLSI guidelines. The test medium for most species was Mueller-Hinton broth (MHB). Bacteria were grown overnight to early stationary phase and adjusted in MHB to 5.0×10^5 colony-forming units per mL (c.f.u./mL) in the wells of 96-well microtiter plates, mixed with varying concentrations of test compounds and incubated at 37° C. for 24 h. […] MHBs containing 10% fetal bovine serum (Gibco), 21 mM MgCl, or 1.0 mg/ml LPS (lipopolysaccharides from Escherichia coli O55:B5, Sigma-Aldrich) were used to test their inhibitory effects.

E. coli Top10 [2] = format: cell-based, Escherichia coli; conditions: Top10
Procedure: as §1

[3] = system: Saccharomyces cerevisiae VL-48; assay: MIC, Saccharomyces cerevisiae; format: cell-based
Procedure: as §1

[4] = system: Enterobacter cloacae NRRL-B-413; format: cell-based; conditions: NRRL-B-413
Procedure: as §1

[5] = system: Methicillin-resistant Staphylococcus aureus ATCC 43300; format: cell-based
Procedure: as §1

[6] = system: Pseudomonas aeruginosa PAO1; format: cell-based; conditions: PAO1
Procedure: as §1

[7] = system: Klebsiella pneumoniae NRRL-B-408; format: cell-based; conditions: NRRL-B-408
Procedure: as §1

Candida albicans = format: cell-based
Procedure: as §1

Acinetobacter baumannii = format: cell-based
Procedure: as §1

Bacillus subtilis 168 = format: cell-based; conditions: 168
Procedure: as §1

[8] = LPS binding by isothermal titration calorimetry; design: species or system Escherichia coli; conditions: ITC
Procedure: Microcalorimetric experiments of peptide binding to LPS were performed on an MCS isothermal titration calorimeter (ITC) (Microcal, Northampton, Mass.) at 37° C. LPS was prepared as a 50 μM aqueous suspension in 20 mM HEPES (pH 7.0) buffer by suspension, sonication and temperature cycling between 5° C. and 70° C. This suspension was stored at 4° C. overnight prior to use. 100 μM peptide solutions (brevicidine and polymyxin B) were prepared in the same buffer and all solutions were degassed prior to use by stirring under vacuum for 5 min at 37° C. After thermal equilibration, 5 μL aliquots of the peptide solution were added every 3 min into the lipid-containing cell at 37° C. and stirred constantly. The change in heat during the titration steps was registered in real time and raw data were processed using the Origin® 7 software provided with the instrument. In control experiments, the corresponding peptide solution (or LPS solution) was injected into the buffer without LPS (or without peptide).

E. coli Top10 [9] = assay: Bacterial growth kinetics; format: cell-based, Escherichia coli; conditions: E. coli cells exposed to compound
Procedure: A fresh single colony of E. coli Top10 was inoculated into MHB (5 mL) and grown with shaking at 225 rpm overnight. The bacteria were diluted to 1×10^5 c.f.u./mL in fresh MHB, grown […] to early log-phase (OD=0.15) and treated with the antibiotics of interest in the wells of a 96-well plate. Final antibiotic concentrations varied from 1×MIC to 8×MIC. The plate was then incubated at 30° C. overnight, with OD 600 measurements taken every 30 seconds.

E. coli Top10 [10] = assay: Time-kill assay; format: cell-based, Escherichia coli
Procedure: An overnight culture of E. coli Top10 or Pseudomonas aeruginosa PAO1 cells was diluted 1:10,000 in MHB and incubated at 37° C. with agitation at 180 rpm for 2 h (early exponential). The bacteria were then challenged with antibiotics at 10×MIC, brevicidine (20 μg/ml), laterocidine (20 μg/ml) or polymyxin B (10 μg/ml) at room temperature without shaking. An untreated sample of cells was used as a negative control. At intervals, 10 μL aliquots were removed, centrifuged at 10,000 g for 1 min and resuspended in 1.0 mL of sterile PBS. Tenfold-serially-diluted suspensions were plated on MHB agar plates and incubated at 37° C. overnight. Colonies were counted and the number of c.fu. per mL was calculated. For analysis of lysis, 300 μL of culture (OD600=1.0) were treated with 10×MIC of antibiotics for 24 h. Experiments were performed in triplicate.

P. aeruginosa PAO1 = assay: Atomic force microscopy of treated P. aeruginosa; format: cell-based, Pseudomonas aeruginosa
Procedure: (§2) The samples were then centrifuged at 8000 g for 10 min at 4° C., and the pellet was washed twice in 100 lpL of apyrogenic water. The bacteria resuspended in 50 μL of apyrogenic water were applied to mica disks and dried overnight at 28° C. before imaging. Atomic force micrographs were recorded on a Veeco Mulitmode AFM with NanoScope III controller operating in contact mode. The data were analyzed with NanoScope Analysis software v.1.40 (Veeco, USA). Scans were acquired at 25° C. at the rates of 1.0 Hz and 256 samples per line resolution. Downstream image processing and analysis were performed using NanoScope software (Bruker). Height images were flattened to compensate for cell curvature, and topographical sections were used to generate two-dimensional reconstructions of surface texture.

E. coli ATCC 25922 = assay: Atomic force microscopy of treated E. coli; format: cell-based, Escherichia coli; conditions: E. coli ATCC25922, 10×MIC
Procedure: as §2

E. cloacae NRRL-B-425 = format: cell-based, Enterobacter cloacae; conditions: NRRL-B-425
Procedure: as §1

[11] = system: Escherichia coli ATCC 25922; assay: Resistance acquisition during serial passaging; format: cell-based; conditions: serial passaging at subinhibitory concentrations over 30 days
Procedure: Escherichia coli ATCC 25922 was inoculated into MHB overnight at 37° C. with continuous shaking. Cells were diluted 10,000 times in MHB to about 1×10^6 c.f.u./mL. […] Plates with bacteria were incubated at 37° C. without shaking. […] This process was repeated for 30 d, and the final MIC was confirmed by the same antibacterial assay described above. The experiment was performed in quadruplicate, and on each day, the sample that developed the highest resistance was measured to plot the curve.

Molecule CCC(C)CCC(=O)N[C@H](CC(N)=O)C(=O)N[C@H](Cc1ccc(O)cc1)C(=O)N[C@H](Cc1c[nH]c2ccccc12)C(=O)N[C@H](CCCN)C(=O)N[C@@H](CCCN)C(=O)NCC(=O)N[C@H](CCCN)C(=O)N[C@@H](Cc1c[nH]c2ccccc12)C(=O)N[C@@H]1C(=O)N[C@@H]([C@@H](C)CC)C(=O)NCC(=O)N[C@H](CO)C(=O)O[C@@H]1C (stereo partly drawn) [Compound 1, 4-Methyl-Hexanoyl-D-Asn-D-Tyr-D-Trp-D-Orn-Orn-Gly-D-Orn-Trp-Thr-Ile-Gly-Ser (cyclized via lactone formation between Thr and the C-terminus)] ({Hexanoyl(4ξ-Me)}-[dN][dY][dW][dOrn][Orn]G[dOrn]WTIG[dS]; ester 9-C) has an MIC [1] of 2 µg/mL (≈ 1.32 µM), an MIC (E. coli Top10 [2]) of 2 µg/mL (≈ 1.32 µM) and an MIC ([3]; Saccharomyces cerevisiae) greater than 64 µg/mL. The “MIC Sc” value ([3]; Table 2, Saccharomyces cerevisiae VL-48) was “ND (ND >64 μg/ml)”, the MIC [4] was 2 µg/mL (≈ 1.32 µM) and the “MIC En” value [4] was 2 µg/mL (≈ 1.32 µM). The MIC ([5]; ATCC 43300) was greater than 64 µg/mL, the “MIC MRSA” value ([5]; Table 2, Methicillin-resistant Staphylococcus aureus ATCC 43300) was “ND (ND >64 μg/ml)” and the MIC [6] was 1 µg/mL (≈ 0.658 µM). For the same molecule, the “MIC Pa” value [6] was 1 µg/mL (≈ 0.658 µM), the MIC [7] was 2 µg/mL (≈ 1.32 µM) and the MIC (Candida albicans) was greater than 64 µg/mL. For the same molecule, the “MIC Ca” value (Candida albicans; Table 2, Candida albicans) was “ND (ND >64 μg/ml)”, the MIC (Acinetobacter baumannii) was 16 µg/mL (≈ 10.5 µM) and the “MIC Ab” value (Acinetobacter baumannii) was 16 µg/mL (≈ 10.5 µM). The MIC (Bacillus subtilis 168) was 32 µg/mL (≈ 21.1 µM), the “MIC Bs” value (Bacillus subtilis 168) was 32 µg/mL (≈ 21.1 µM) and the Kd ([8]; 37° C., read-out: dissociation constant Kd for LPS) was 6.5 µM. For the same molecule, the “binding to LPS” value ([8]; FIGS. 18a-18b) was “strong binding to LPS”, the “time of growth at a reduced rate before steady decrease in cell count” value (E. coli Top10 [9]) was 30 min and the “time of exposure to significant reduction of viable cells” value (E. coli Top10 [10]; 10 times the MIC) was 30 min. For the same molecule, the “time of exposure to slightly reduced cell viability” value (E. coli Top10 [10]; 10 times the MIC) was 15 min, the “bactericidal against E. coli” value (E. coli Top10 [10]; growth kinetics, time-kill assay and lysis assay) was “bactericidal” and the “cell morphology by AFM” value (P. aeruginosa PAO1) was “lost their regular rod-like shape and became lumpy and rugged”. For the same molecule, the “cell morphology by AFM” value (E. coli ATCC 25922) was “lost their regular rod-like shape and became lumpy and rugged”, the MIC (E. cloacae NRRL-B-425) was 2 µg/mL (≈ 1.32 µM) and the development of resistance [11] was “development of resistance was not observed”.
